# Source: patent US9232796B2, “Herbicidal compositions comprising 4-amino-3-chloro-5-fluoro-6-(4-chloro-2-fluoro-3-methoxyphenyl) pyridine-2-carboxylic acid or a derivative thereof and acetyl-CoA carboxylase (ACCase) inhibitors” (DOW AGROSCIENCES LLC, priority 2012, dated 2016)
# Experiments:
# CYPRO = test: Example II in-water applied, greenhouse, transplanted paddy rice weeds; format: in vivo, Cyperus rotundus L.
# Procedure: Weed seeds or nutlets of the desired test plant species were planted in puddled soil (mud) prepared by mixing a shredded, non-sterilized mineral soil (50.5 percent silt, 25.5 percent clay, and 24 percent sand, with a pH of about 7.6 and an organic matter content of about 2.9 percent) and water at a 1:1 volumetric ratio. The prepared mud was dispensed in 365 mL aliquots into 16-ounce (oz.) non-perforated plastic pots with a surface area of 86.59 square centimeters (cm^2) leaving a headspace of 3 centimeters (cm) in each pot. Mud was allowed to dry overnight prior to planting or transplanting. Rice seeds were planted in Sun Gro MetroMix® 306 planting mixture, which typically has a pH of 6.0 to 6.8 and an organic matter content of about 30 percent, in plastic plug trays. Seedlings at the second or third leaf stage of growth were transplanted into 860 mL of mud contained in 32-oz. non-perforated plastic pots with a surface area of 86.59 cm^2 4 days prior to herbicide application. The paddy was created by filling the headspace of the pots with 2.5 to 3 cm of water. […] The plants were grown for 4-22 days in a greenhouse with an approximate 14 hr. photoperiod which was maintained at about 29° C. during the day and 26° C. during the night. Nutrients were added as Osmocote® (19:6:12, N:P:K+minor nutrients) at 2 g per 16-oz. pot and 4 g per 32-oz. pot. Water was added on a regular basis to maintain the paddy flood, and supplemental lighting was provided with overhead metal halide 1000-Watt lamps as necessary. The plants were employed for testing when they reached the first through fourth true leaf stage.
# Treatments consisted of the acid or esters of 4-amino-3-chloro-5-fluoro-6-(4-chloro-2-fluoro-3-methoxy-phenyl)pyridine-2-carboxylic acid (compound A) each formulated as an SC (suspension concentrate) and various herbicidal components alone and in combination.
# For formulated compounds, a measured amount was placed in an individual 100 or 200 mL glass vial and was dissolved in a volume of 1.25% (v/v) Agri-Dex® crop oil concentrate to obtain application solutions.
# Applications were made by injecting with a pipetter appropriate amounts of the application solutions, individually and sequentially, into the aqueous layer of the paddy. Control plants were treated in the same manner with the solvent blank. Applications were made so that all treated plant material received the same concentrations of acetone and crop oil concentrate.
# (§1) The treated plants and control plants were placed in a greenhouse as described above and water was added as needed to maintain a paddy flood. After approximately 3 weeks the condition of the test plants as compared with that of the untreated plants was determined visually and scored on a scale of 0 to 100 percent where 0 corresponds to no injury or growth inhibition and 100 corresponds to complete kill.
# Colby's equation was used to determine the herbicidal effects expected from the mixtures (Colby, S. R. 1967. Calculation of the synergistic and antagonistic response of herbicide combinations. Weeds 15:20-22.).
# The following equation was used to calculate the expected activity of mixtures containing two active ingredients, A and B: Expected=A+B−(A×B/100)
# ECHCG = test: Example I postemergence foliar-applied, greenhouse, direct seeded rice weeds; format: in vivo, Echinochloa crusgalli (L.) Beauv.
# Source text: Seeds or nutlets of the desired test plant species were planted in a soil matrix prepared by mixing a loam or sandy loam soil (e.g., 28.6 percent silt, 18.8 percent clay, and 52.6 percent sand, with a pH of about 5.8 and an organic matter content of about 1.8 percent) and calcareous grit in an 80 to 20 ratio. The soil matrix was contained in plastic pots with a volume of 1 quart and a surface area of 83.6 square centimeters (cm^2). When required to ensure good germination and healthy plants, a fungicide treatment and/or other chemical or physical treatment was applied. The plants were grown for 8-22 days in a greenhouse with an approximate 14 hr. photoperiod which was maintained at about 29° C. during the day and 26° C. during the night. Nutrients (Peters Excel® 15-5-15 5-Ca 2-Mg and iron chelate) were applied in the irrigation solution as needed and water was added on a regular basis. Supplemental lighting was provided with overhead metal halide 1000-Watt lamps as necessary. The plants were employed for testing when they reached the first through fourth true leaf stage.
# Treatments consisted of the acid or esters of 4-amino-3-chloro-5-fluoro-6-(4-chloro-2-fluoro-3-methoxy-phenyl)pyridine-2-carboxylic acid (Compound A), each formulated as an SC (suspension concentrate), and various herbicidal components alone and in combination.
# Other herbicidal components were applied on an acid equivalent (ae) or active ingredient (ai) basis and included acetyl coA carboxylase (ACCase)-inhibiting herbicides (cyclohexanedione and aryloxyphenoxypropionate chemical classes) cyhalofop-butyl formulated as Clincher® SF (285 gr ai/L EC), diclofop-methyl formulated as Hoelon® 3EC, fenoxaprop-p-ethyl+isoxadifen-ethyl formulated as RiceStar® HT (0.58 lb./gal EC), fenoxaprop-p-ethyl+mefenpyr diethyl formulated as Puma® IEC, metamifop formulated as Metamifop EC, haloxyfop-methyl formulated as Gallant Super®, fluazifop-p-butyl formulated as Fusilade® DX, quizalofop-p-ethyl formulated as Assure® II, profoxydim formulated as Aura® 20EC, clethodim applied as Intensity®, sethoxydim formulated as Poast®, and tralkoxydim formulated as Achieve®.
# Treatment requirements were calculated based upon the rates being tested, the concentration of active ingredient or acid equivalent in the formulation, and a 12 mL application volume at a rate of 187 L/ha.
# For treatments comprised of formulated compounds, measured amounts of compounds were placed individually in 25 mL glass vials and diluted in a volume of 1.25% (v/v) Agri-Dex® crop oil concentrated to obtain 12× stock solutions. […] Application solutions were prepared by adding an appropriate amount of each stock solution (e.g., 1 mL) and diluted to the appropriate final concentrations with the addition of 10 mL of an aqueous mixture of 1.25% (v/v) crop oil concentrate so that the final spray solutions contained 1.25+/−0.05% (v/v) crop oil concentrate.
# All stock solutions and applications solutions were visually inspected for compound compatibility prior to application. Spray solutions were applied to the plant material with an overhead Mandel track sprayer equipped with a 8002E nozzles calibrated to deliver 187 L/ha over an application area of 0.503 m^2 at a spray height of 18 to 20 inches (46 to 50 cm) above average plant canopy height. Control plants were sprayed in the same manner with the solvent blank.
# as §1, with “watered by sub-irrigation” for “water was added as needed”, “prevent wash-off of the test compounds.” for “maintain a paddy flood.”, “weeks,” for “weeks”, “kill. […]” for “kill.”
structure (smiles),measurement,setting,value
"COc1c(Cl)ccc(-c2nc(C(=O)O)c(Cl)c(N)c2F)c1F [Compound A Acid, 4-amino-3-chloro-6-(4-chloro-2-fluoro-3-methoxyphenyl)-5-fluoropyridine-2-carboxylic acid]",Visual Weed Control (%) - 21 DAA CYPRO Obs,CYPRO; 8.75 gae/ha,0%
same,Visual Weed Control (%) - 21 DAA CYPRO Obs,CYPRO; Compound A Acid 8.75 gae/ha,0%
same,Visual Weed Control (%) - 21 DAA CYPRO Obs,CYPRO; Compound A Acid 17.5 gae/ha,30%
same,Visual Weed Control (%) - 21 DAA CYPRO Obs,CYPRO; Compound A Acid 35 gae/ha,85%
"COc1c(Cl)ccc(-c2nc(C(=O)OCc3ccccc3)c(Cl)c(N)c2F)c1F [Compound A Benzyl Ester, benzyl ester of 4-amino-3-chloro-5-fluoro-6-(4-chloro-2-fluoro-3-methoxy-phenyl)pyridine-2-carboxylic acid]",Visual Weed Control (%) - 20 DAA CYPRO Obs,CYPRO; 4.38 gae/ha,50%
same,Visual Weed Control (%) - 21 DAA CYPRO Obs,CYPRO; 4.38 gae/ha,20%
same,Visual Weed Control (%) - 20 DAA CYPRO Obs,CYPRO; 8.75 gae/ha,100%
same,Visual Weed Control (%) - 20 DAA CYPRO Obs,CYPRO; 17.5 gae/ha,100%
same,Visual Weed Control (%) - 22 DAA ECHCG Obs,ECHCG; 8 gae/ha,35%
same,Visual Weed Control (%) - 22 DAA ECHCG Obs,ECHCG; 16 gae/ha,65%
same,Visual Weed Control (%) - 22 DAA ECHCG Obs,ECHCG; 32 gae/ha,80%
"C[C@@H](Oc1ccc(Oc2nc3ccc(Cl)cc3o2)cc1)C(=O)N(C)c1ccccc1F [Metamifop, (2R)-2-[4-[(6-chloro-2-benzoxazolyl)oxy]phenoxy]-N-(2-fluorophenyl)-N-methylpropanamide]",Visual Weed Control (%) - 22 DAA ECHCG Obs,ECHCG; 9.38 gai/ha,0%
same,Visual Weed Control (%) - 22 DAA ECHCG Obs,ECHCG; 18.75 gai/ha,40%
same,Visual Weed Control (%) - 22 DAA ECHCG Obs,ECHCG; 37.5 gai/ha,70%
"CCOC(=O)[C@@H](C)Oc1ccc(Oc2cnc3cc(Cl)ccc3n2)cc1 [Quizalofop-p-ethyl, ethyl(2R)-2-[4-[(6-chloro-2-quinoxalinyl)oxy]phenoxy]propanoate, reference compound]",Visual Weed Control (%) - 21 DAA CYPRO Obs,CYPRO; 15 gai/ha,0%
same,Visual Weed Control (%) - 21 DAA CYPRO Obs,CYPRO; 30 gai/ha,0%
same,Visual Weed Control (%) - 22 DAA ECHCG Obs,ECHCG; 3.75 gai/ha,20%
same,Visual Weed Control (%) - 22 DAA ECHCG Obs,ECHCG; 7.5 gai/ha,30%
